# Measurements from patent publication US6297230A, “Cyanoaziridines for treating cancer” (priority 2000, dated 2001).
# Experiments:
# [1] = Body weight and lethality in SCID mice treated with AMP-404; format: in vivo
# Procedure: The SCID mouse colony is maintained in a barrier facility with specially filtered air, autoclaved (sterilized) food and water and protective handling precautions (gloves, mask, gown) to prevent inadvertent infection. For tumor studies, human tumor cells are grown in vitro, harvested, counted and injected subcutaneously into the front flank area. Tumor cell innocula range from 10^6 -2×10^7 cells/mouse. Palpable tumors begin to develop after 1-3 weeks and sizes are determined by caliper measure of the widest perpendicular diameters. These dimensions are converted to mass using the formula: […]
# Drug treatments are given by intravenous (IV) or intraperitoneal (IP) injection beginning 24 hours after tumor implantation (day 1). […] Drug therapy began 1 day later with AMP-404 dissolved in a water-miscible co-solvent system containing (per mL): benzyl alcohol 30 mg; polysorbate 80 mw, 80 mg; polyethylene glycol 300 mw, 650 mg; and q.s. to 1.0 mL in absolute ethanol. The daily dose was either 50 mg/kg or 100 mg/kg. Therapy was continued daily for […] and tumors were measured three times per week up to the 7 week ending period (two weeks after stopping drug therapy).
# [2] = system: Human 8226 myeloma tumors; test: Antitumor efficacy in SCID mice bearing human 8226 myeloma tumors (40-fold doxorubicin resistant); format: in vivo, human tumor xenograft in SCID mice
# Description: Testing for Antitumor Efficacy in Mice with Severe Combined Immunodeficiency Disease (SCID)
# The SCID mouse represents an autosomal recessive mutation in an inbred strain of […] mice which renders the animals profoundly immunodeficient and able to accept tissue xenografts from rats, humans or other strains of mice. (Ware, et al., J Immunol Methods 85:353-361, 1985.) The immunologic defect results from an inability to carry out normal immunoglobulin and T-cell receptor recombination reactions during the development of T- and B-lymphocytes. This renders mice with very low levels of T- and B-cells, and low levels of antibody production which allows foreign (allogeneic or xenogeneic) tissue grafts to grow in vivo. […] (Phillips, et al., Curr Top Microbiol Immunol 152:259-263, 1989.) Compared to athymic nude mice, SCID mice accept more tumor tissue types and breed more efficiently. (Phillips, et al., Curr Top Microbiol Immunol 152:259-263, 1989.) The SCID mice are also more sensitive to ionizing radiation (Budach, et al., Cancer Res 52(22):6292-6296, 1992) due to a defect in DNA double strand break repair. (Chang, et al., Cancer Res 53:1244-1248, 1993.) Because some SCID mice can spontaneously revert to a more normal phenotype, serum immunoglobulin […] (IgG) levels are routinely measured and if elevated (leaky phenotype syndrome), the mouse is excluded from further study.
# The SCID mouse colony is maintained in a barrier facility with specially filtered air, autoclaved (sterilized) food and water and protective handling precautions (gloves, mask, gown) to prevent inadvertent infection. For tumor studies, human tumor cells are grown in vitro, harvested, counted and injected subcutaneously into the front flank area. Tumor cell innocula range from 10^6 -2×10^7 cells/mouse. Palpable tumors begin to develop after 1-3 weeks and sizes are determined by caliper measure of the widest perpendicular diameters. These dimensions are converted to mass using the formula:
# wherein W=the shorter of the two dimensions and L=the longer diameter value.
# Tumor growth rates are plotted as mass (g) per days after inoculation.
# Drug treatments are given by intravenous (IV) or intraperitoneal (IP) injection beginning 24 hours after tumor implantation (day 1). […] Drug therapy began 1 day later with AMP-404 dissolved in a water-miscible co-solvent system containing (per mL): benzyl alcohol 30 mg; polysorbate 80 mw, 80 mg; polyethylene glycol 300 mw, 650 mg; and q.s. to 1.0 mL in absolute ethanol. The daily dose was either 50 mg/kg or 100 mg/kg. […]
structure (smiles),measurement,setting,value
"N#CC1CN1C(=O)Nc1ccccc1 (stereo not shown) [AMP 404, 2-Cyanoaziridine-1-(N-phenyl)carboxamide]",Weight loss,[1]; 50 mg/kg daily,no apparent weight loss
same,Mean body weight loss compared to control,[1]; 100 mg/kg daily,15-20%
same,Drug-induced lethality,"[1]; mouse, in vivo",no drug-induced lethality
same,Antitumor effect,[2]; 50 mg/kg daily,not active
same,Mean (SD) tumor volume,"[2]; 50 mg/kg daily, Week 3",104.2 (78.6) mm^3
same,Mean (SD) tumor volume,"[2]; 50 mg/kg daily, Week 4",247.9 (225.9) mm^3
same,Mean (SD) tumor volume,"[2]; 50 mg/kg daily, Week 5",574.2 (296.2) mm^3
same,Mean (SD) tumor volume,"[2]; 50 mg/kg daily, Week 6","1,020 (396.2) mm^3"
same,Mean (SD) tumor volume,"[2]; 50 mg/kg daily, Week 7","1,858.4 (941.4) mm^3"
same,Mean reduction in tumor volume,[2]; 100 mg/kg,50%
same,Mean (SD) tumor volume,"[2]; 100 mg/kg daily, Week 3, P-value .005 vs control",32.9 (17.9) mm^3
same,Mean (SD) tumor volume,"[2]; 100 mg/kg daily, Week 4, P-value .068 vs control",104.9 (81.8) mm^3
same,Mean (SD) tumor volume,"[2]; 100 mg/kg daily, Week 5, P-value .229 vs control",312.5 (195.5) mm^3
same,Mean (SD) tumor volume,"[2]; 100 mg/kg daily, Week 6, P-value .100 vs control",357.3 (314.5) mm^3
same,Mean (SD) tumor volume,"[2]; 100 mg/kg daily, Week 7, P-value 0.19 vs control",824.5 (793.7) mm^3
same,Tumor size at end of 6 week experiment,"[2]; 100 mg/kg, control approximately 1,000 mm^3",approximately 300 mm^3
same,Onset of developing palpable tumors,[2]; after inoculation,3 weeks
same,Tumor take rate (% of inoculated mice developing palpable tumors),[2]; all 3 groups,100%
same,Antitumor activity in vivo,"[2]; multidrug-resistant human myeloma, SCID mice",active against multidrug-resistant human myeloma cells in vivo
